# US20090012088A1 (priority 2005, published 2009)
# Entries after “also recorded” stand apart in the source; their conditions may differ. Where two headings read alike, the source gives them in different places.
# What was measured:
# PARG [1] = test: Table 2: small molecules tested for PARG inhibition activity (relative to PIP-1); type: biochemical
# U-937 cells = test: Protection against H2O2 treatment of U-937 cells (cell survival); type: cell-based; conditions: FIG. 13
# Description: We have made multiple derivatives of PIP-1; these compounds are shown below in Table 2 and in FIG. 11 and labeled Structures 1-39. The neuroprotective effects of structures 1-26 were tested in the cellular assay and compared to the neuroprotective effect of PIP-1 (FIG. 13).
# PIP-1 and structures 1-26 were screened for protection against H2O2 treatment of U-937 cells FIG. 13.
# PARG [2] = target: T1, PARG (Homo sapiens, UniProt Q86W56); conditions: tannins; read-out: in vitro IC50 for PARG; cited from earlier work
# T1 sequence (Q86W56 whole entry, species assumed): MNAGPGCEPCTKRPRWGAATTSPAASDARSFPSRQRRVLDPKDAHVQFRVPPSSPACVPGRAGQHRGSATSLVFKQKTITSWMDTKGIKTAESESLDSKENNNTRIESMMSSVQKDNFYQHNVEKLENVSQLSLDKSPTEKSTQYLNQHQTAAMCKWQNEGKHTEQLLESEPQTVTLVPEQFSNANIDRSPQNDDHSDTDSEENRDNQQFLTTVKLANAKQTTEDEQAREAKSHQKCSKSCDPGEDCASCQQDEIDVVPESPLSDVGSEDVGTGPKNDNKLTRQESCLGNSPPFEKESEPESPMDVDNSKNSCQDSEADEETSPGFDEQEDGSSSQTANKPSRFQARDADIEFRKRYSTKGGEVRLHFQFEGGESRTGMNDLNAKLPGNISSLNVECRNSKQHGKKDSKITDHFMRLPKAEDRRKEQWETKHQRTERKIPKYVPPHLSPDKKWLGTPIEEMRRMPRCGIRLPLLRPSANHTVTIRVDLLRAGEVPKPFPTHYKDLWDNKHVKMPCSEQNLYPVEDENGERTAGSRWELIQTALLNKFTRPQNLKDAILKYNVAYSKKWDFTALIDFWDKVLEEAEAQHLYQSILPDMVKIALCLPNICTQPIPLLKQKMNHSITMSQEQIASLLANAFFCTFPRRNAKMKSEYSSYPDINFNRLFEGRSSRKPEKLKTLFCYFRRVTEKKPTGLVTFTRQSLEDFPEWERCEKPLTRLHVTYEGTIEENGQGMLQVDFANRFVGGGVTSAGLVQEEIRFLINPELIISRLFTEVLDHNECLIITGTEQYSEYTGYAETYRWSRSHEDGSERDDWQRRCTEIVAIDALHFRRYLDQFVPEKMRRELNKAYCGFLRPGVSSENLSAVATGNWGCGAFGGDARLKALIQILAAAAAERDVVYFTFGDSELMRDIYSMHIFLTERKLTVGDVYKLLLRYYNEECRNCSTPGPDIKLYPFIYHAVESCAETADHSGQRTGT
# [3] = test system: neuronally differentiated PC-12 cells; test: Protection from rotenone induced toxicity in neuronally differentiated PC-12 cells; type: cell-based
# Description: Rotenone is a complex I poison and is widely used in cell culture and animal models of PD. (20, 31, 32) To determine if PIP-1 protects cells from rotenone insult, PC-12 cells are neuronally differentiated (with neuronal growth factor β for 10 days) and then treated with 10 μM rotenone and a range of PIP-1 concentrations. After 72 hours, cell death is assessed using propidium iodide staining as measured by flow cytometry. […] To determine the features on PIP-1 that are important for PARG inhibition and cell protection, three derivatives are constructed that lacked key functionality (see FIG. 19 compounds labeled 3, 4 and 5).
# Cell culture conditions: HL-60 and SK-N-SH cells are grown in RPMI 1640 media supplemented with 10% FBS and PC-12 cells are grown in RPMI 1640 media supplemented with 10% HS and 5% FBS. All cell lines are incubated at 37° C. in a 5% CO2, 95% air atmosphere. HL-60 cells are split every two to three days as needed and SK-N-SH cells are split when they reach approximately 90% confluency at a 1:6 ratio. SK-N-SH cells are differentiated by adding media containing 10 μM retinoic acid (in DMSO). Media is replaced every other day and cells are differentiated for a total of 12 days. PC-12 cells are differentiated by adding media containing 25 ng/mL Neuronal Growth Factro β. Media is replaced every other day and cells are differentiated for a total of 10 days. Differentiation is observed by microscopy.
# Protection of Rotenone and MPP^+ induced toxicity in PC-12 and SK-N-SH cells: SK-N-SH and PC-12 cells are neuronally differentiated as described above. 10 μM rotenone, 10 μM MPP^+ and various concentrations of PIP-1 or its derivatives are added to the cells and incubated for 72 h. The cells are then washed in PBS and the viability is determined by adding propidium iodide to 1 μg/mL and measuring the fluorescent intensity of each cell by flow cytometry.
# [4] = test system: NAD^+ depletion in HL-60 cell lysate; test: Whole cell assay screen: NAD+ depletion in H2O2-activated HL-60 cell lysate; type: cell-based
# Description: To identify a non-toxic, non-DNA intercalating, cell permeable small molecule inhibitor of PARG, a high-throughput screen is devised. Given the severe challenges in isolating enough of the PAR substrate for an in vitro screen directly for PARG inhibition, we develop a primary screen that utilizes cell lysates and, in particular, mammalian cell lysates. In this assay, HL-60 cells are treated with H2O2 to damage their DNA (which activates PARP-1) and then lyse the cells. In individual wells of a 384-well plate, this cell lysate is incubated with 22,000 different small molecules from an in-house compound collection; these compounds are either purchased (from ChemBridge Corp.) or collected from various sources at the University of Illinois. (28) NAD^+ levels are measured using a fluorescent method based on the chemical conversion of NAD^+ to a fluorescent product (29, 30) (FIG. 14A). The amount of NAD^+ consumed in each well is monitored, and any compounds that prevent NAD^+ consumption are classified “hits” in this primary screen.
# Library screen: 12.5 μL of Lysing PARP buffer (50 mM Tris, 10 mM MgCl2, pH 8.0, 1% Triton X-100) containing 100 μM NAD^+ is added to each well of a 384-well plate. Library compounds at 10 mM in DMSO are transferred using a 384-well pin transfer device that delivers 0.1 μL. HL-60 cells are spun down at 200 g for 5 min. and resuspended in Lysing PARP buffer to a concentration of 8×10^6 cells/mL. 10 μL of a 30% H2O2 solution is added per mL of cells. 12.5 μL of the activated cell lysate is added to the plates. The plates are incubated for 60 min. at 37° C. The concentration of NAD^+ is then determined using a fluorescent assay^1. 10 μL of a 2 M KOH solution and 10 μL of a 20% acetophenone solution (in ethanol) is added to each well. The plate is then incubated at 4° C. for 10 min. 45 μL of a 88% formic acid solution was added to each well. The plate was then incubated for 5 min. in a 110° C. oven. Once the plate cools, the fluorescent intensity of each well is determined on a Criterion Analyst AD (Molecular Devices) with an excitation of 360 nm and an emission of 445 nm.
# PARG [5] = target: PARG (Bos taurus, UniProt O02776); test: Inhibition of PARG activity in vitro (quantitation of free ADP-ribose with benzamidine, fluorescence); type: biochemical; parameters: purchased Biomol
# Sequence of PARG (Bos taurus, UniProt O02776) (O02776 whole entry): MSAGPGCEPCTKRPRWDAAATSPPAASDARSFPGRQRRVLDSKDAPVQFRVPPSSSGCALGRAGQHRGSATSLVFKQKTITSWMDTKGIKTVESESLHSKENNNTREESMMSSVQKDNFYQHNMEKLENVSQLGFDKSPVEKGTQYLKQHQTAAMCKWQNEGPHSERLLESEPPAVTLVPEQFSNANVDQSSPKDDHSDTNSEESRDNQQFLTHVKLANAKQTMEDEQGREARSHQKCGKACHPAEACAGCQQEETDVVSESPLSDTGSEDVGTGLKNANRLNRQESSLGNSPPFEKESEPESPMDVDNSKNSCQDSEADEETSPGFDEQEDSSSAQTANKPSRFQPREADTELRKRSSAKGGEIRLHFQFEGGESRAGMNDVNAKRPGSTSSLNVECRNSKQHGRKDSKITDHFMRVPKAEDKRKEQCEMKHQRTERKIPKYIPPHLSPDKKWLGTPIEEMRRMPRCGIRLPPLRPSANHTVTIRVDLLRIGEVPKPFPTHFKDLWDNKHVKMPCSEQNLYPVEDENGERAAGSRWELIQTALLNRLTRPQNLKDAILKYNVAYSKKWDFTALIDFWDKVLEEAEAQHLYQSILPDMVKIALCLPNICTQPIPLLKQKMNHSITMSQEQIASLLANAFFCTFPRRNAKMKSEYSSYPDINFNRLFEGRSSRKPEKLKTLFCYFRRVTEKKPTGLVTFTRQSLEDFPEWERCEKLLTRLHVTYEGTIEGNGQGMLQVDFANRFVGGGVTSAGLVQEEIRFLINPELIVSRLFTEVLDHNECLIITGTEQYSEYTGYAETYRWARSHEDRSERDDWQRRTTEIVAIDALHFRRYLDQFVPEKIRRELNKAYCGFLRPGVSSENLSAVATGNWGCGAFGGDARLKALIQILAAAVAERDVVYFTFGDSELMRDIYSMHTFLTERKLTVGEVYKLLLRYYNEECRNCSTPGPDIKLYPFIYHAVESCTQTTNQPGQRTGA
# Description: PARG assay: Production and purification of PAR. PARP-1 (20 units) is added to 900 μL of PARP assay buffer containing 1 mM NAD^+ and 22.5 μg activated DNA. This reaction was run at 37° C. for 30 min and stopped by the addition of 300 μL of cold 100% trichloroacetic acid. The proteins thus precipitated are collected by centrifugation at 18,000 g for 30 min at 4° C. After removal of the supernatant, 1 mL of 1 M NaOH and 100 mM EDTA are added to the pellet and incubated for 2 h at 37° C. to cleave the PAR from the PARP protein acceptor. Then 9 mL of PAR buffer A (250 mM ammonium acetate, 6 M guanidinium HCl, 10 mM EDTA, pH 9.0) is added to the PAR and applied to a PROSEP-PB (Millipore) phenyl boronate column that is pre-equilibrated with PAR buffer A. The flowthrough is then reapplied to the column to ensure that all PAR is bound. The column is then washed with 25 mL of PAR buffer A, followed by 10 mL of PAR buffer B (1 M ammonium acetate and 1 mM EDTA, pH 9.0). The bound PAR is eluted with 4 mL of water collected in 1-mL fractions. Fractions containing PAR are pooled and concentrated. The concentration, measured as monomer, is determined by measuring the absorbance at 258 nm. PAR has an extinction coefficient of 13,500 cm^−1 at 258 nm.
# Inhibition of PARG Activity: To determine the PARG IC50 values of the compounds, 39 μL of a 25.6 μM solution of PAR in PARG assay (50 mM KCl, 50 mM KH2PO4, pH 7.2) buffer and 1 μL of the compounds at varying concentrations (in PARG assay buffer) are added into the wells of a 384-well plate. The reaction is initiated by the addition of 10 μL of PARG (Biomol) at a concentration of 1 ng/ml (in PARG assay buffer), bringing the final concentration to […] and 20 μM PAR with varying concentrations of compounds in a total volume of 50 μL. The plate is incubated for 20 min at room temperature. The amount of free ADP-ribose hemiacetals is determined by the addition of 5 μL of an aqueous 8.5M KOH solution and 5 μL of an aqueous 850 μM benzamidine solution to each well. The plate is then incubated for 10 min in an oven set at 110° C. The plate is allowed to cool and then read on a Criterion Analyst AD with an excitation of 360 nm and an emission of 445 nm.
# PARG [6] = target: T1, PARG; conditions: 32P-PAR assay; KM of PAR 1.7 μM; cited from earlier work
Compound,Activity (PARG [1]),Protection of U-937 cells treated with H2O2 (activity compared to PIP-1) (U-937 cells),also measured
CN(C)c1cnn(C)c(=O)c1N [Structure 39],low,–,–
CC(=O)Nc1c(N2CCCCC2)cnn(-c2ccccc2)c1=O [Structure 20],good,activity similar or better than PIP-1,–
Nc1c(N2CCCCC2)cnn(-c2ccccc2)c1=O [Structure 19],good,activity similar or better than PIP-1,–
Nc1c(N2CCOCC2)cnn(-c2ccccc2)c1=O [Structure 21],good,activity similar or better than PIP-1,–
CC(=O)Nc1c(N2CCOCC2)cnn(-c2ccccc2)c1=O [Structure 22],moderate,moderate activity,–
CC(=O)N(C(C)=O)c1c(Cl)cnn(-c2ccccc2)c1=O [Structure 10],low,–,–
4-Amino-5-dimethylamino-2-phenyl-2H-pyridazin-3-one [PIP-1],moderate,low or no activity,–
Nc1c(Cl)cnn(-c2ccccc2)c1=O [Structure 8],low,–,–
"O=c1c(Cl)c(O)cnn1-c1ccccc1 [entry 3, reference compound]",low,low or no activity,–
CCCCN(CCCC)c1cnn(-c2ccccc2)c(=O)c1NC(C)=O [Structure 14],low,low or no activity,–
CCCCCCNc1c(Cl)cnn(-c2ccccc2)c1=O [Structure 7],low,–,–
Oenothein B,–,–,IC50 (PARG [2]): 3.8 µM
"CN(C)c1ccn(-c2ccccc2)c(=O)c1N [compound 4, 3-Amino-4-dimethylamino-1-phenyl-1H-pyridin-2-one]",–,–,Protection of rotenone-treated neuronally differentiated PC-12 cells (in words) ([3]; listed as lactam 4): virtually identical PARG inhibition and cell protection properties as PIP-1; also recorded: protect; Inhibition of NAD+ depletion in the whole cell assay [4]: inhibit NAD^+ depletion; PARG inhibition in vitro (in words) (PARG [5]; listed as lactam 4): virtually identical PARG inhibition and cell protection properties as PIP-1; also recorded: inhibit PARG activity in vitro
CCN(CC)CCOc1ccc2c(c1)C(=O)c1cc(OCCN(CC)CC)ccc1-2 [Tilorone],–,–,Ki (PARG [6]): ~7 µM
CC(=O)Nc1c(Cl)cnn(-c2ccccc2)c1=O [Structure 9],low,–,–
Nc1c(N2CCCC2)cnn(-c2ccccc2)c1=O [Structure 17],moderate,moderate activity,–
CCN(CC)c1cnn(-c2ccccc2)c(=O)c1N [Structure 11],good,activity similar or better than PIP-1,–
"CN(C)c1cnn(C)c(=O)c1N [compound 6, 4-Amino-5-dimethylamino-2-methyl-2H-pyridazin-3-one]",–,–,Protection of rotenone-treated neuronally differentiated PC-12 cells (in words) [3]: inactive; Protection of rotenone-treated neuronally differentiated PC-12 cells (in words) ([3]; listed as analogue 6): do not protect; Inhibition of NAD+ depletion in the whole cell assay [4]: do not inhibit NAD^+ depletion; PARG inhibition in vitro (in words) (PARG [5]): inactive; PARG inhibition in vitro (in words) (PARG [5]; listed as analogue 6): do not inhibit NAD^+ depletion or PARG activity
CCCN(CCC)c1cnn(-c2ccccc2)c(=O)c1N [Structure 12],good,activity similar or better than PIP-1,–
CC(=O)Nc1c(N2CCCC2)cnn(-c2ccccc2)c1=O [Structure 18],moderate,moderate activity,–
CCCCN(CC)c1cnn(-c2ccccc2)c(=O)c1N [Structure 15],moderate,moderate activity,–
CCCCN(CC)c1cnn(-c2ccccc2)c(=O)c1NC(C)=O [Structure 16],low,low or no activity,–
CC(=O)Nc1c(N(C)C)cnn(-c2ccccc2)c1=O [Structure 24],moderate,moderate activity,–
Nc1ccc2cc3ccc(N)cc3nc2c1 [profavine],–,–,Ki (PARG [6]): 36 µM
CCCN(CCC)c1cnn(-c2ccccc2)c(=O)c1NC(C)=O [Structure 26],low,low or no activity,–
CCN(CC)c1cnn(-c2ccccc2)c(=O)c1NC(C)=O [Structure 25],moderate,moderate activity,–
CCOc1ccc2nc3cc(N)ccc3c(N)c2c1 [ethacridine],–,–,Ki (PARG [6]): < 7 µM
CCCCN(CCCC)c1cnn(-c2ccccc2)c(=O)c1N [Structure 13],good,activity similar or better than PIP-1,–
